Measured values as given in US20120328525A1, “NANOPARTICLE COMPOSITIONS AND COMPONENTS THEREOF” (priority 2011, published 2012).

Test system: axillary sweating
Assay: Placebo-controlled blinded clinical study, gravimetric sweat measurement (Examples 5-10)
Assay type: in vivo, human
Settings: for percent of subjects with at least a 30% reduction in sweat production vs Baseline / average reduction in sweat production by gravimetric sweat measurement: two weeks after single topical treatment; for average reduction in sweat production by gravimetric sweat measurement: 0.3 mL/axilla; for greater reduction in sweat production than control (placebo) group / greater effectiveness in reducing sweat production than placebo (responder rate): two weeks after treatment; for greater reduction in sweat production than control (placebo) group: placebo 53 mg; for greater effectiveness in reducing sweat production than placebo (responder rate): placebo 29% responders
Description: (§1) The purpose of the study was to determine if Emulsion H is biologically active in reducing sweating. […] Some subjects received treatment with the potentially biologically active formulation and some subjects received treatment with a placebo, i.e. water. Neither the subject nor the investigator knew which treatment the subject was receiving.
Two weeks after a single treatment, subjects were re-assessed by gravimetric sweat measurement to determine the degree of sweat reduction. A comparison of post-treatment sweat production between the treatment groups was made to determine the degree of sweat reduction by the potentially biologically active formulation.
The sweat production of the subject is measured gravimetrically by the following procedure: • The subject was placed in a room with relatively constant temperature and humidity for at least 30 min. • The subject was placed in a semi-reclining position with the axilla fully exposed and the arm resting comfortably above the head. • The subject's axilla was dried gently with a cotton gauze pad. • The investigator used a forceps to place one filter paper (90 mm diameter) on a balance sensitive to 0.1 mg and recorded its weight. • The investigator used a forceps to place the measured filter paper on the axilla, covered it with plastic and taped the edges of the bag against the subject's skin with hypoallergenic tape to form a seal around the plastic bag. • After 5 minutes, the investigator gently removed the tape and plastic from the subject's axilla and then, using forceps, immediately placed the filter paper onto the scale to record its weight. The scale was then dried and zero balanced. • This measurement was then repeated as described above with the other axilla.
If the subject was eligible for treatment on this basis, the subject was then treated. For treatment, one of the study preparations (0.3 mL/axilla) was applied topically with a gloved finger by the investigator to the subject's skin of the axilla. Emulsion H contained 19.2 mg Labrafac Lipophile WL 1349 and 28.8 mg Polysorbate 80, NF, in addition to 0.9% Sodium Chloride Irrigation, USP, and Gelatin Phosphate Buffer. The average diameter (e.g., particle size) of nanoparticles contained in the Emusion H empty nanoparticle composition was approximately 80.1 nm. The preparation was administered in small increments to avoid run-off. The liquid was rubbed-in until vanished.
The subject was scheduled for a follow-up office visit two weeks after the treatment. At the follow-up office visit, the subject was questioned as to their compliance with the instructions regarding which medications not to use between treatment and the two week follow-up office visit. If the subject was non-compliant, the subject was disqualified from the study. If the subject was compliant, the subject was re-assessed using the gravimetric sweat measurement procedure.
as §1, with “V” for “H”
If the subject was eligible for treatment on this basis, the subject was then treated. For treatment, one of the study preparations (0.3 mL/axilla) was applied topically with a gloved finger by the investigator to the subject's skin of the axilla. Emulsion V contained Emulsifying Wax, Gelatin Phosphate Buffer Solution, Isopropyl Myristate, Labrafac Lipophile, Methylparaben, Mineral Oil Heavy Viscosity Range, Polysorbate 80, Propylparaben, Purified Water, Sodium Chloride Injection, and White Petrolatum. All ingredients are either NF or USP grade. The average diameter (e.g., particle size) of nanoparticles contained in the Emusion V empty nanoparticle composition was approximately 77.1 nm. The preparation was administered in small increments to avoid run-off. […]

## CCCCCCCCCCCCCC(=O)OC(C)C [Isopropyl Myristate]
  percent of subjects with at least a 30% reduction in sweat production vs Baseline: 55%
  average reduction in sweat production by gravimetric sweat measurement: 103 mg
  greater reduction in sweat production than control (placebo) group: 195%
  greater effectiveness in reducing sweat production than placebo (responder rate): 191%

## CCCOC(=O)c1ccc(O)cc1 [Propylparaben]
  percent of subjects with at least a 30% reduction in sweat production vs Baseline: 70%
  average reduction in sweat production by gravimetric sweat measurement: 177 mg
  greater reduction in sweat production than control (placebo) group: 337%
  greater effectiveness in reducing sweat production than placebo (responder rate): 245%

## Polysorbate 80
  percent of subjects with at least a 30% reduction in sweat production vs Baseline: 80%
  average reduction in sweat production by gravimetric sweat measurement: 159 mg
  greater reduction in sweat production than control (placebo) group: 300%
  greater effectiveness in reducing sweat production than placebo (responder rate): 280%
